Patent publication US9689040B2, “Selective inhibitors of tumor-initiating cells” (Children's Medical Center Corporation, priority 2011, dated 2017)

B1: NM_174931 (nucleic acid, listed as Homo sapiens)
DNA: AATAGAGTCTGCACTAGGAAACTGGTGGGAGCCGAGGTCCGGAAGTCCGACGCTGGTCGGTGGGCGCATGCGCAGCGCGCGCTCTACGGCGCTGAACCGGGGCGAGCAGAGAGCTGTCAGATACTATAGCCATATGAAGTTGAACATGGCAGAAGAAGAGGACTATATGTCTGATTCCTTCATTAATGTCCAAGAAGATATCAGACCAGGATTGCCAATGCTAAGGCAAATCCGAGAAGCCCGTCGAAAAGAAGAAAAGCAACAGGAAGCCAATTTGAAAAACAGGCAGAAGAGTTTAAAAGAAGAAGAACAAGAAAGACGTGACATTGGGTTGAAGAATGCACTAGGCTGTGAAAACAAAGGGTTTGCCTTGCTCCAAAAGATGGGCTATAAAAGTGGTCAGGCACTTGGCAAGAGTGGGGGTGGTATTGTTGAACCAATTCCTCTCAATATCAAAACAGGGAAAAGTGGCATTGGTCATGAGGCATCATTAAAACGGAAAGCAGAGGAAAAATTGGAAAGCTACAGAAAAAAGATTCACATGAAAAACCAAGCTGAAGAAAAAGCTGCAGAACAGTTTCGAATGCGACTTAAAAATAAGCAAGATGAAATGAAGCTAGAAGGAGATCTCAGAAGAAGCCAGCGAGCCTGTCAACAACTGGATGTCCAGAAAAATATTCAGGTTCCCAGGGAAGCATGGTACTGGTTGAGGCTTGAAGAGGAGACTGAAGAAGATGAAGAAGAAAAAGAACAGGATGAAGATGAATATAAGAGTGAAGATTTAAGCGTACTGGAAAAATTACAAATATTGACTAGTTATTTAAGAGAAGAACATCTATATTGTATTTGGTGTGGAACAGCCTATGAAGATAAAGAAGACCTATCTTCAAATTGTCCAGGACCAACTTCTGCAGATCATGACTAAGATTATTCCCAATAAAGTGGAAACTTGAAAAATGTTATTACTTCCTAGGGATAGACAATTTAGCAGTTGGAAATCTCAAATTTTTTATGCCAGTAAAGAAAGGGGGACTTTATATAATGTTTTGTTCTTTTTGTACTTTAGAATATGAATGTTCATTGACTTGAAAAAAATAATGCAATGGCATTTCAGAACACAAGTATCACAGAGATGGACAGTTACAATTTATTGCTATATTGTGATACGTGAGGGGTTTAAGGACACCAACAGGTAACTTCTTATTCCCCTCTTCACTTTGGAACAAATTGAGAAATAAGAAATGGGAGTCAGAGGAA

Tests used:
BPLER cells [1] = experiment: Genome-wide siRNA lethality screen (primary screen), CellTiterGlo viability; assay type: cell-based, human; details: for Ratio: R, BPLER versus HMLER, primary screen; for MAD BPLER / Fold BPLER: siRNA pool against the gene; for MAD BPLER: MAD score of viability in BPLER cells; for Fold BPLER: fold viability in BPLER cells
HMLER cells = experiment: as above; assay type: cell-based, human; details: for Fold_HMLER / MAD_HMLER: primary screen, HMLER cells; for MAD_HMLER: MAD score; for MAD HMLER: MAD score of viability in HMLER cells; for Fold HMLER: fold viability in HMLER cells
BPLER cells [2] = experiment: Secondary (cherry-pick) screen with the 4 individual siRNAs of each pool; details: for Cherry_Score: secondary cherry-pick screen, 4 individual siRNAs of each pool
[3] = validation screen with individual siRNAs of each pool
[4] = ratio of Fold_BPLER to Fold_HMLER
[5] = ratio of fold viability BPLER/HMLER
[6] = siRNA pool against the gene, fold viability
[7] = secondary screen with the 4 individual siRNAs of each pool

Molecule | Ratio (BPLER cells [1]) | Fold_HMLER (HMLER cells; siRNA pool) | Cherry Score (BPLER cells [2]; [3]) | Ratio BPLER/HMLER (BPLER cells [1]; [4]) | Ratio BPLER/HMLER (BPLER cells [1]; [5]) | MAD BPLER (BPLER cells [1]) | Fold BPLER (BPLER cells [1]) | MAD_HMLER (HMLER cells; siRNA pool against the gene) | Fold_HMLER (HMLER cells; [6]) | MAD HMLER (HMLER cells; siRNA pool against the gene) | Fold HMLER (HMLER cells; siRNA pool against the gene) | Cherry_Score (BPLER cells [2]) | Cherry Score (BPLER cells [2]; [7])
NM_032425 | 0.73 | 0.77 | 2 |  |  |  |  |  |  |  |  |  | 
NM_032916 | 0.70 | 0.70 | 2 |  |  |  |  |  |  |  |  |  | 
NM_052946 | 0.67 | 0.90 | 1 |  |  |  |  |  |  |  |  |  | 
NM_080730 | 0.72 | 0.99 | 1 |  |  |  |  |  |  |  |  |  | 
NM_134444 | 0.69 | 1.01 | 1 |  |  |  |  |  |  |  |  |  | 
NM_148571 | 0.73 | 0.81 | 1 |  |  |  |  |  |  |  |  |  | 
NM_152374 | 0.72 | 0.97 | 2 |  |  |  |  |  |  |  |  |  | 
NM_152496 | 0.72 | 0.64 | 1 |  |  |  |  |  |  |  |  |  | 
NM_152655 | 0.72 | 0.89 | 2 |  |  |  |  |  |  |  |  |  | 
NM_152905 | 0.67 | 1.08 | 1 |  |  |  |  |  |  |  |  |  | 
NM_198080 | 0.67 | 0.85 | 1 |  |  |  |  |  |  |  |  |  | 
NOSTRIN |  |  |  | 0.67 | 0.67 | −2.06 | 0.604 | −0.69 | 0.90 | −0.69 | 0.90 | 1 | 1
NUP205 |  |  |  | 0.73 | 0.73 | −2.88 | 0.544 | −1.57 | 0.75 | −1.57 | 0.75 | 3 | 3
PCBP3 |  |  |  | 0.71 | 0.71 | −1.69 | 0.727 | 0.15 | 1.02 | 0.15 | 1.02 | 1 | 1
PDCD4 |  |  |  | 0.73 | 0.73 | −2.81 | 0.462 | −2.25 | 0.63 | −2.25 | 0.63 | 1 | 1
PDE6C |  |  |  | 0.66 | 0.66 | −1.98 | 0.621 | −0.33 | 0.95 | −0.33 | 0.95 | 1 | 1

Molecule | Ratio (BPLER cells [1]) | Fold_HMLER (HMLER cells; siRNA pool) | Cherry Score (BPLER cells [2]; [3]) | Ratio BPLER/HMLER (BPLER cells [1]; [4]) | Ratio BPLER/HMLER (BPLER cells [1]; [5]) | MAD BPLER (BPLER cells [1]) | Fold BPLER (BPLER cells [1]) | MAD_HMLER (HMLER cells; siRNA pool against the gene) | Fold_HMLER (HMLER cells; [6]) | MAD HMLER (HMLER cells; siRNA pool against the gene) | Fold HMLER (HMLER cells; siRNA pool against the gene) | Cherry_Score (BPLER cells [2]) | Cherry Score (BPLER cells [2]; [7])
PHF1 |  |  |  | 0.71 | 0.71 | −3.21 | 0.606 | −0.72 | 0.86 | −0.72 | 0.86 | 1 | 1
POLA1 |  |  |  | 0.74 | 0.74 | −2.01 | 0.724 | −0.17 | 0.97 | −0.17 | 0.97 | 3 | 3
PRC1 |  |  |  | 0.68 | 0.68 | −3.08 | 0.409 | −2.40 | 0.60 | −2.40 | 0.60 | 1 | 1
SCD |  |  |  | 0.74 | 0.74 | −3.24 | 0.555 | −1.58 | 0.75 | −1.58 | 0.75 | 2 | 2
SETX |  |  |  | 0.70 | 0.70 | −2.40 | 0.617 | −0.72 | 0.89 | −0.72 | 0.89 | 1 | 1
SLC24A3 |  |  |  | 0.72 | 0.72 | −2.23 | 0.637 | −0.75 | 0.88 | −0.75 | 0.88 | 1 | 1
SLC47A1 |  |  |  | 0.68 | 0.68 | −1.62 | 0.613 | −0.71 | 0.90 | −0.71 | 0.90 | 2 | 2
STIM2 |  |  |  | 0.72 | 0.72 | −2.39 | 0.597 | −0.99 | 0.83 | −0.99 | 0.83 | 2 | 2
TANC2 |  |  |  | 0.67 | 0.67 | −1.86 | 0.709 | 0.40 | 1.05 | 0.40 | 1.05 | 1 | 1
TBC1D24 |  |  |  | 0.71 | 0.71 | −1.97 | 0.680 | −0.32 | 0.95 | −0.32 | 0.95 | 2 | 2
TNPO1 |  |  |  | 0.70 | 0.70 | −1.99 | 0.630 | −0.59 | 0.90 | −0.59 | 0.90 | 1 | 1
TSG101 |  |  |  | 0.66 | 0.66 | −2.45 | 0.684 | 0.23 | 1.04 | 0.23 | 1.04 | 3 | 3
TUT1 |  |  |  | 0.69 | 0.69 | −1.91 | 0.680 | −0.07 | 0.99 | −0.07 | 0.99 | 2 | 2
USP39 |  |  |  | 0.70 | 0.70 | −2.13 | 0.695 | −0.04 | 0.99 | −0.04 | 0.99 | 2 | 2
XM_058073 | 0.73 | 0.75 | 3 |  |  |  |  |  |  |  |  |  | 
B1 | 0.72 | 0.65 | 1 |  |  |  |  |  |  |  |  |  | 
